Measurements published in the Deep4Chem optical property database.
Values belong to the molecule of their own block, whether it stands above or below them.

Experiment: solvent given as SMILES

SMILES: Cc1ccccc1
fluorescence lifetime (in C1CCCCC1): 50 ns

SMILES: c1ccc(N(c2ccccc2)c2ccc(-c3cccc4nc5ccccc5cc34)cc2)cc1
fluorescence lifetime (in CC#N): 6.83 ns
fluorescence lifetime (in CCCCCC): 1.95 ns
fluorescence lifetime (in CCOCC): 6.67 ns
fluorescence lifetime (in ClCCl): 14.5 ns

SMILES: CCNc1ccc2c(c1)C(C)(C)C(=O)C=C2
fluorescence lifetime (in O): 3.9 ns

SMILES: CC1=C(c2cccs2)C(C)=[N+]2C1=C(c1ccc(OS(=O)(=O)c3ccc([N+](=O)[O-])cc3[N+](=O)[O-])cc1)c1c(C)c(-c3cccs3)c(C)n1[B-]2(F)F
fluorescence lifetime (in Cc1ccccc1): 3.6 ns

SMILES: C(=C\c1cc(-c2ccccc2)c(/C=C/c2ccc(N(c3ccccc3)c3ccccc3)cc2)cc1-c1ccccc1)/c1ccc(N(c2ccccc2)c2ccccc2)cc1
fluorescence lifetime (in ClCCl): 1.29 ns

SMILES: COC(=O)/C(C#N)=c1\s/c(=c2/s/c(=C(/C#N)C(=O)OC)c3cc(-c4ccc(OC)cc4)sc23)c2sc(-c3ccc(OC)cc3)cc12
fluorescence lifetime (in Cc1ccccc1): 4.36 ns

SMILES: CC1(C)c2ccccc2N(c2ccc(-c3cc(-c4ccccc4)nc(-c4ccccc4)n3)cc2)c2ccccc21
fluorescence lifetime (in Cc1ccccc1): 4.23 ns
fluorescence lifetime (in ClCCl): 25 ns

SMILES: C/C=C/c1cccc(OC)c1
fluorescence lifetime (in CC#N): 6.5 ns
fluorescence lifetime (in CCCCCC): 5.9 ns

SMILES: CC1=C(I)C(C)=[N+]2C1=C(c1c(-c3ccccn3)nc3ccccn13)c1c(C)cc(C)n1[B-]2(F)F
fluorescence lifetime (in ClCCl): 0.3 ns

SMILES: c1ccc(-c2nc(-c3ccc(-c4nc(-c5ccccc5)c(-c5ccccc5)o4)cc3)oc2-c2ccccc2)cc1
fluorescence lifetime (in C1COCCO1): 1.03 ns

SMILES: O=C(O)c1ccc2ccc3cccc4ccc1c2c34
fluorescence lifetime (in C1CCOC1): 10.6 ns
fluorescence lifetime (in CC#N): 9 ns
fluorescence lifetime (in CCCCCC): 8.68 ns
fluorescence lifetime (in CCO): 7.78 ns
fluorescence lifetime (in CN(C)C=O): 8.43 ns
fluorescence lifetime (in CO): 15.5 ns
fluorescence lifetime (in Cc1ccccc1): 7.14 ns
fluorescence lifetime (in ClCCl): 5.12 ns

SMILES: N#Cc1cc(C#N)cc(-n2c3ccccc3c3cc(-c4ccc5c(c4)c4ccccc4n5-c4cc(C#N)cc(C#N)c4)ccc32)c1
fluorescence lifetime (in Cc1ccccc1): 24 ns

SMILES: c1ccc(-c2nc(-c3ccc(-c4ccc(-c5nc(-c6ccccc6)c(-c6ccccc6)o5)cc4)cc3)oc2-c2ccccc2)cc1
fluorescence lifetime (in C1COCCO1): 0.95 ns

SMILES: C(=C\c1ccc(-c2ccc(/C=C/c3ccc(-n4c5ccccc5c5ccccc54)cc3)s2)s1)/c1ccc(-n2c3ccccc3c3ccccc32)cc1
fluorescence lifetime (in C1CCOC1): 1.06 ns
fluorescence lifetime (in CC#N): 1.08 ns
fluorescence lifetime (in CC(C)=O): 1.08 ns
fluorescence lifetime (in CN(C)C=O): 1.08 ns
fluorescence lifetime (in Cc1ccccc1): 1.05 ns

SMILES: CC(C)c1cc(C(C)C)c(B2c3cc(N4c5ccccc5C(C)(C)c5ccccc54)ccc3N(c3ccccc3)c3ccc(N4c5ccccc5C(C)(C)c5ccccc54)cc32)c(C(C)C)c1
fluorescence lifetime (in c1cc(-c2cccc(-n3c4ccccc4c4ccccc43)c2)cc(-n2c3ccccc3c3ccccc32)c1): 17 ns

SMILES: c1ccc(-c2cc(-c3ccc4ccc5cccc6ccc3c4c56)ccn2)nc1
fluorescence lifetime (in C1CCOC1): 6.5 ns
fluorescence lifetime (in CC#N): 4.7 ns
fluorescence lifetime (in CCC#N): 4.6 ns
fluorescence lifetime (in CCCC#N): 5.5 ns
fluorescence lifetime (in CCCCCC): 8.1 ns
fluorescence lifetime (in CCCO): 3.5 ns
fluorescence lifetime (in CCO): 3.5 ns
fluorescence lifetime (in CO): 3.1 ns
fluorescence lifetime (in Cc1ccccc1): 6 ns

SMILES: OB(O)c1ccc(-c2ccc(N(c3ccccc3)c3ccccc3)cc2)cc1
fluorescence lifetime (in C1CCCCC1): 1.59 ns
fluorescence lifetime (in C1CCOC1): 2.14 ns
fluorescence lifetime (in CC#N): 2.24 ns
fluorescence lifetime (in CCO): 2.39 ns
fluorescence lifetime (in CCOC(C)=O): 2.21 ns
fluorescence lifetime (in CCOCC): 1.69 ns
fluorescence lifetime (in CO): 2.97 ns

SMILES: Fc1c(F)c(-n2c3ccccc3c3ccccc32)c(F)c(F)c1-c1nnc(-c2ccccc2)o1
fluorescence lifetime (in Cc1ccccc1): 6.7 ns

SMILES: COc1nc(Cl)nc(Nc2ccc3c4c(cccc24)C(=O)c2ccccc2-3)n1
fluorescence lifetime (in CC#N): 8.4 ns
fluorescence lifetime (in CC(C)=O): 7.7 ns
fluorescence lifetime (in CC(C)O): 8 ns
fluorescence lifetime (in CCCCOCCCC): 0.9 ns
fluorescence lifetime (in CCOC(C)=O): 3.9 ns
fluorescence lifetime (in CCOCC): 1.6 ns
fluorescence lifetime (in CO): 7.7 ns
fluorescence lifetime (in Cc1ccccc1): 2.8 ns
fluorescence lifetime (in Clc1ccccc1): 5.4 ns
fluorescence lifetime (in N#Cc1ccccc1): 7.8 ns
fluorescence lifetime (in O=C1CCCCC1): 6.3 ns

SMILES: COC(=O)c1ccc(-c2nc3ccc(N(C)C)cc3s2)cc1
fluorescence lifetime (in C1CCCCC1): 2.4 ns

SMILES: Cc1cc(C)c2nc3[nH]c(=O)[nH]c(=O)c3nc2c1
fluorescence lifetime (in CC#N): 1.65 ns

SMILES: C(=C\c1ccc(N(c2ccc(/C=C/c3ccc(N(c4ccccc4)c4ccccc4)cc3)cc2)c2ccc(/C=C/c3ccc(/C=C/c4ccc(N(c5ccc(/C=C/c6ccc(N(c7ccccc7)c7ccccc7)cc6)cc5)c5ccc(/C=C/c6ccc(N(c7ccccc7)c7ccccc7)cc6)cc5)cc4)c4nsnc34)cc2)cc1)/c1ccc(N(c2ccccc2)c2ccccc2)cc1
fluorescence lifetime (in C1CCOC1): 1.83 ns
fluorescence lifetime (in CCOC(C)=O): 1.85 ns
fluorescence lifetime (in Cc1ccccc1): 3.61 ns
fluorescence lifetime (in ClC(Cl)Cl): 2.08 ns
fluorescence lifetime (in ClCCl): 1.86 ns

SMILES: COc1ccc(-c2ccc(-c3ccc(C#N)s3)s2)cc1
fluorescence lifetime (in C1CCCCC1): 0.23 ns
fluorescence lifetime (in C1COCCO1): 0.38 ns
fluorescence lifetime (in CC#N): 0.97 ns
fluorescence lifetime (in CC(C)O): 0.89 ns
fluorescence lifetime (in CCCCO): 0.91 ns
fluorescence lifetime (in CCO): 0.93 ns
fluorescence lifetime (in CCOC(C)=O): 0.44 ns
fluorescence lifetime (in CN(C)C=O): 1.44 ns
fluorescence lifetime (in CO): 1.06 ns
fluorescence lifetime (in CS(C)=O): 1.76 ns
fluorescence lifetime (in Cc1ccccc1): 0.34 ns
fluorescence lifetime (in ClC(Cl)Cl): 0.6 ns
fluorescence lifetime (in ClCCl): 0.74 ns
fluorescence lifetime (in O): 0.91 ns

SMILES: O=C1/C(=C2\Sc3ccc(S(=O)(=O)O)cc3C2=O)Sc2ccc(S(=O)(=O)O)cc21
fluorescence lifetime (in CN(C)C=O): 4.85 ns
fluorescence lifetime (in CO): 0.99 ns
fluorescence lifetime (in CS(C)=O): 0.16 ns
fluorescence lifetime (in O): 0.13 ns

SMILES: CC1(C)c2ccccc2N(c2ccc3c(c2)Oc2ccccc2S3(=O)=O)c2ccccc21
fluorescence lifetime (in O=P(c1ccccc1)(c1ccccc1)c1ccccc1Oc1ccccc1P(=O)(c1ccccc1)c1ccccc1): 29 ns

SMILES: c1cc2c3c(c1)ccc1[n+]3[B-]3(Oc4cccc5ccc6[n+](c45)[B-](O2)(O3)n2c-6cc3c4ccccc4c4ccccc4c32)n2c-1cc1c3ccccc3c3ccccc3c12
fluorescence lifetime (in ClCCl): 3.65 ns

SMILES: CC1(C)C(/C=C/C2=C(c3ccc(C(=O)O)cc3)C(=C/C=C3/N(CCCCS(=O)(=O)[O-])c4ccc5ccccc5c4C3(C)C)/CCC2)=[N+](CCCCS(=O)(=O)[O-])c2ccc3ccccc3c21
fluorescence lifetime (in CC(C)=O): 0.84 ns
fluorescence lifetime (in CCO): 0.69 ns
fluorescence lifetime (in CO): 0.61 ns
fluorescence lifetime (in CS(C)=O): 0.98 ns
fluorescence lifetime (in ClC(Cl)Cl): 1.62 ns
fluorescence lifetime (in ClCCl): 1.34 ns
fluorescence lifetime (in O): 0.2 ns

SMILES: c1ccc(N(c2ccccc2)c2ccc(-c3ccc(-c4ccc(-c5ccc(-c6ccc(N(c7ccccc7)c7ccccc7)cc6)s5)c5nsnc45)s3)cc2)cc1
fluorescence lifetime (in ClC(Cl)Cl): 5.13 ns

SMILES: CCOC(=O)CN1C(=O)C2=C(c3ccccc3)N(CC(=O)OCC)C(=O)C2=C1c1ccccc1
fluorescence lifetime (in CC#N): 6.7 ns
fluorescence lifetime (in CS(C)=O): 7.34 ns
fluorescence lifetime (in Cc1ccccc1): 5.93 ns

More lines, now with the values ahead:

fluorescence lifetime (in ClCCl): 4.1 ns
SMILES: CC[B-]1(CC)c2cccc3cc4ccccc4c(c23)-c2cccc(C)[n+]21

fluorescence lifetime (in ClCCl): 4.28 ns
SMILES: CCN(CC)c1ccc2c(c1)oc(=O)c1c(C)nc3c(c(-c4ccccc4)nn3C)c12

fluorescence lifetime (in ClC(Cl)Cl): 7.1 ns
SMILES: COc1ccc(-c2cc(-c3ccc(N(C)C)cc3)nc(-c3ccccc3)n2)cc1

fluorescence lifetime (in C1CCCCC1): 2.4 ns
fluorescence lifetime (in c1ccccc1): 2.5 ns
SMILES: CN(C)c1ccc2nc(-c3ccc(C(=O)O)cc3)sc2c1

fluorescence lifetime (in ClCCl): 0.85 ns
SMILES: C(=C\c1ccc(-c2ccncc2)cc1)/c1ccc(-c2ccncc2)cc1

fluorescence lifetime (in C1CCOC1): 2.9 ns
SMILES: CCn1c2ccccc2c2cc(C#Cc3cc(C#Cc4ccc5c(c4)c4ccccc4n5CC)nc(N4CCCCC4)n3)ccc21

fluorescence lifetime (in ClC(Cl)Cl): 0.535 ns
SMILES: CCCCCCN1C(=O)c2cccc3c(-c4ccc(-c5ccc(-c6ccc7c8c(cccc68)C(=O)N(CCCCCC)C7=O)s5)s4)ccc(c23)C1=O

fluorescence lifetime (in C1CCCCC1): 4.3 ns
fluorescence lifetime (in C1CCOC1): 5.3 ns
fluorescence lifetime (in C1COCCO1): 0.8 ns
fluorescence lifetime (in CC#N): 3.9 ns
fluorescence lifetime (in CCO): 5.1 ns
fluorescence lifetime (in CN(C)C=O): 6.5 ns
fluorescence lifetime (in CO): 4 ns
fluorescence lifetime (in COCCOC): 4.8 ns
fluorescence lifetime (in CS(C)=O): 8.2 ns
fluorescence lifetime (in O): 5.7 ns
fluorescence lifetime (in OCC(O)CO): 8.9 ns
fluorescence lifetime (in OCCO): 7 ns
SMILES: CN(C)c1c2ccccc2cc2ccccc12

fluorescence lifetime (in ClC(Cl)Cl): 3.8 ns
SMILES: CCCCN1C(=O)c2ccc3c4ccc5c6c(ccc(c7ccc(c2c37)C1=O)c64)C(=O)N(CCCC)C5=O

fluorescence lifetime (in ClC(Cl)Cl): 26 ns
SMILES: c1ccc2c(c1)ccc1ccc3ccc4ccccc4c3c12

fluorescence lifetime (in C1CCOC1): 4.22 ns
SMILES: CCn1c2ccccc2c2cc(C#Cc3cc(C#Cc4ccc5c(c4)c4ccccc4n5CC)nc(S(C)(=O)=O)n3)ccc21

fluorescence lifetime (in C1CCOC1): 2.32 ns
SMILES: CCn1c2ccccc2c2cc(C#Cc3cc(C#Cc4ccc5c(c4)c4ccccc4n5CC)ncn3)ccc21

fluorescence lifetime (in CN(C)C=O): 1.92 ns
fluorescence lifetime (in CS(C)=O): 1.82 ns
SMILES: CCCCCCCCC1(CCCCCCCC)c2cc(-c3ccc([N+](=O)[O-])cc3)ccc2-c2ccc(-c3ccc([N+](=O)[O-])cc3)cc21

fluorescence lifetime (in ClCCl): 4.4 ns
SMILES: COc1ccc(-c2c3ccccc3c(-c3ccc(OC)cc3)c3ccccc23)cc1

fluorescence lifetime (in ClC(Cl)Cl): 4.09 ns
SMILES: CC(C)(C)n1c(=O)c2cc3ccc4cccc5ccc(c2c1=O)c3c45

fluorescence lifetime (in CC#N): 5.6 ns
SMILES: Cc1cc(=O)oc2ccc3ccc(O)cc3c12

fluorescence lifetime (in C1CCCCC1): 2.67 ns
fluorescence lifetime (in CCOC(C)=O): 0.92 ns
SMILES: CC1=[N+]2C(=C(c3cccs3)c3ccc(C)n3[B-]2(F)F)C=C1c1cc2n(c1)[B-](F)(F)[N+]1=CC=CC1=C2c1c(C)cc(C)cc1C

fluorescence lifetime (in ClC(Cl)Cl): 13.2 ns
SMILES: CCCCCCCCN1C(=O)c2ccc3c4c(-c5ccc6c7ccccc7n(-c7ccccc7)c6c5)cc5c6c(cc(-c7ccc8c9ccccc9n(-c9ccccc9)c8c7)c(c7ccc(c2c37)C1=O)c64)C(=O)N(CCCCCCCC)C5=O

fluorescence lifetime (in CS(C)=O): 0.05 ns
SMILES: Cn1c(=O)c(/N=N/c2ccc(S(=O)(=O)O)c3ccccc23)c(O)c2ccccc21

fluorescence lifetime (in ClC(Cl)Cl): 0.3 ns
SMILES: C(#Cc1ccccc1)C(C#Cc1ccccc1)=Cc1cccc(C=C(C#Cc2ccccc2)C#Cc2ccccc2)c1

fluorescence lifetime (in ClC(Cl)Cl): 0.56 ns
SMILES: CCCCCCn1c2cc(/C=C(\C#N)c3cccs3)ccc2c2ccc(/C=C(\C#N)c3cccs3)cc21

fluorescence lifetime (in ClCCl): 1.6 ns
SMILES: C[Si]1(C)c2cc(-c3ccccc3)ccc2C=Cc2ccc(-c3ccccc3)cc21

fluorescence lifetime (in ClCCl): 1.84 ns
SMILES: CCCCn1c(-c2ccc(-c3nnc(-c4ccccc4)o3)cc2)nc2c3ccccc3c3ccccc3c21

fluorescence lifetime (in ClCCl): 7.18 ns
SMILES: C1=CC2=CC=CC3C=c4c(cc5cccc6cccc4c65)C(=C1)C23 (stereo not given)
